Here are results for 15 molecules from ChEMBL document CHEMBL1201862, “PubChem BioAssay data set” (2004).

Calls of active or inactive are those of the source. For most assays here, no stated cut-off is given here; in the data, actives have a measured EC50 and inactives only a lower limit.

Sequence of Cytochrome P450 2C9 (P11712 whole entry): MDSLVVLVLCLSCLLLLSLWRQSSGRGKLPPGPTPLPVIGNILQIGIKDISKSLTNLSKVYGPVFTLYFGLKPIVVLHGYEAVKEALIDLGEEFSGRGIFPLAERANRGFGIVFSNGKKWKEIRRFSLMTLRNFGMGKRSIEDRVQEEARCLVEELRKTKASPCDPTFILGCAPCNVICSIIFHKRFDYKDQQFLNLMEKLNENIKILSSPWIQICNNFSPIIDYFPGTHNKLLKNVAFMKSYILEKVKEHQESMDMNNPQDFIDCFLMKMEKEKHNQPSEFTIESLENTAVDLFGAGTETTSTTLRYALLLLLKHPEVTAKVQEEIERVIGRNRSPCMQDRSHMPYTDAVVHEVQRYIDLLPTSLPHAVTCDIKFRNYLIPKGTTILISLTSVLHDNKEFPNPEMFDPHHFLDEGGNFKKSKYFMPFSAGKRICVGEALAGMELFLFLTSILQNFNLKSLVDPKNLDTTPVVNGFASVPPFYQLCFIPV

One experiment concerns the target T1, Streptokinase A (Streptococcus pyogenes serotype M1, UniProt P10520).
T1 sequence (P10520 whole entry): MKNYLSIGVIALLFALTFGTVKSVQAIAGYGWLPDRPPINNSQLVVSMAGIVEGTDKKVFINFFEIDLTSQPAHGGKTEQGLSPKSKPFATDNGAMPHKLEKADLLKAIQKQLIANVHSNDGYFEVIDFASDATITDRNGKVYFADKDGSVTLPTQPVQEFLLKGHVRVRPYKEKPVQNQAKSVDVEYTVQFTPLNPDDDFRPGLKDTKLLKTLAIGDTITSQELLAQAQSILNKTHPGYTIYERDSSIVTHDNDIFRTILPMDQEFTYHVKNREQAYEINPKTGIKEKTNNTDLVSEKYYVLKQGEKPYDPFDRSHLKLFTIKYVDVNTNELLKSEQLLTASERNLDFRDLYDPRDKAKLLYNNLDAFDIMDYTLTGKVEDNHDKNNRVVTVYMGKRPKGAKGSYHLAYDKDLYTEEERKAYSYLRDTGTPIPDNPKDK
The experiment can be described thus: S. pyogenes streptokinase expression inhibitors, potency, dose response, plasminogen activation absorbance, OD405 (AID 1914).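 Further: secreted streptokinase activity via plasminogen activation per viability signal from cell pellet.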
Conditions: not given
Format: functional, Streptococcus pyogenes M1 GAS.
`COc1cnc(-c2ccccn2)nc1Oc1ccccc1Cl`: the EC50 is given as > 150 µM (not active).

`CC(C)Cc1csc(NC(=O)c2ccc(Br)cc2)c1C(=O)O`: the EC50 is listed as > 150 µM (not active).

Turning to `COC(=O)c1nc(NC(=S)NC(=O)c2cccs2)sc1C`, the EC50 is reported as > 150 µM (not active).

Take `O=C(CCCCCNC(=O)c1ccccc1)N=Nc1c(O)[nH]c2c(Br)cc(Br)cc12`: the EC50 was > 150 µM (not active).

In the case of `CCCCc1ccc(NC(=O)NCc2ccccn2)cc1`, the EC50 is listed as > 150 µM (not active).

Regarding `COc1ccc(C(=O)OC2CCN(c3ncc(C(F)(F)F)cc3Cl)CC2)cc1`, the EC50 is given as > 150 µM (not active).

`C/C(=N\NC(=O)c1ccc(O)cc1)c1cccc(NC(=O)c2ccccc2C)c1`: the EC50 is reported as > 150 µM (not active).

System in the next experiment: not listed separately
As to the kind of experiment: inhibitors of SNCA 5'UTR-driven reporter translation, confirmation, H4 neuroglioma cells, luminescence (AID 1988). The format is functional, cell-based.
Conditions: not given
In the case of `COc1cccc(CNC(=O)c2nnn(CC(=O)Nc3ccc(Br)cc3)c2N)c1`, the EC50 is 11 µM (active).

Regarding `Cn1c(NNC(=O)c2ccccc2F)cc(=O)n(C)c1=O`, the EC50 is reported as > 120 µM (not active).

On to `Cc1ccnc(NS(=O)(=O)c2ccc(NC(=O)COc3ccccc3)cc2)n1`, for which the EC50 was > 120 µM (not active).

Turning to `COc1cc(C2C(C#N)=C(N)N(Nc3ccccc3)C3=C2C(=O)CC(C)(C)C3)ccc1OCc1ccccc1` (stereo not drawn), the 50% effective concentration (EC50) was > 120 µM (not active).

With `CC(C)CC(=O)Nc1ccc(C(=O)NNC(=S)NC(=O)C2CCCCC2)cc1`, the EC50 is 12.4 µM (active).

For `O=C1c2ccccc2C(=O)c2c1cccc2-n1nnc2ccccc21`, the EC50 was > 120 µM (not active).

As for `O=C1NC(c2ccccc2)=C(c2nc3ccccc3s2)C(c2ccc(F)cc2)N1` (stereo not drawn), the EC50 is 20.8 µM (active).

A further experiment addresses T2, Heat shock factor protein 1 (Mus musculus, UniProt P38532).
T2 sequence (P38532 whole entry): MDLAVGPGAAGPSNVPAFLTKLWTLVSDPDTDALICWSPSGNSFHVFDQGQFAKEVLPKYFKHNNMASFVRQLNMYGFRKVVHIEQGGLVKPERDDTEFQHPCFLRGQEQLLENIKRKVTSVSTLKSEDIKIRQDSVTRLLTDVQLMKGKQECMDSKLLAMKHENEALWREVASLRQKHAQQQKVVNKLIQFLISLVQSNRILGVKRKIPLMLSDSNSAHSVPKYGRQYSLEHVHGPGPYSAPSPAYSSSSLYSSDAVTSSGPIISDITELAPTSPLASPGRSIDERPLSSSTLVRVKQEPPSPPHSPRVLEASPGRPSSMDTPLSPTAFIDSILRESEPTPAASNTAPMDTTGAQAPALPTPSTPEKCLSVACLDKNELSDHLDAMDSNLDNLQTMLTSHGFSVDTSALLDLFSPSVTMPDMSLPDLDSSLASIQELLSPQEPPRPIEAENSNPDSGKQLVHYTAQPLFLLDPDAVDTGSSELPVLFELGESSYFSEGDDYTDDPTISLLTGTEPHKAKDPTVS
The experiment can be described thus: HSF1 potentiators in luciferase reporter cells, confirmation, cell-based, NIH3T3, luminescence, dose retest (AID 435004).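 Further: stress induced by proteasome inhibitor MG132 added 30 min after compound; luciferase reporter driven by HSF1 response element in NIH3T3 cells; actives raise luminescence as potentiators of the MG132 stress response.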 The format is functional.
Conditions: not given
Consider `O=C(NCc1nnc(SCc2ccccc2)n1-c1ccccc1)C12CC3CC(CC(C3)C1)C2`, for which the EC50 is > 260 µM (inactive).

System in a further experiment: not listed separately
The experiment can be described thus: Luminescence Cell-Based Dose Response HTS to Identify Inhibitors of 5'UTR Stem-Loop Driven Prion Protein mRNA Translation in H4 Neuroglioblastoma Cells. [Related pubchem assays: 1827 (Project Summary), 1813 (Primary HTS)]. The format is functional.
Conditions: not given
Consider `COc1cccc(CNC(=O)c2nnn(CC(=O)Nc3ccc(Br)cc3)c2N)c1`, for which the EC50 is 103 µM (active).

For `Cn1c(NNC(=O)c2ccccc2F)cc(=O)n(C)c1=O`, the EC50 was > 120 µM (not active).

Consider `Cc1ccnc(NS(=O)(=O)c2ccc(NC(=O)COc3ccccc3)cc2)n1`, for which the EC50 is on record as > 120 µM (not active).

With `COc1cc(C2C(C#N)=C(N)N(Nc3ccccc3)C3=C2C(=O)CC(C)(C)C3)ccc1OCc1ccccc1` (stereo not drawn), the EC50 is 18.7 µM (active).

Regarding `CC(C)CC(=O)Nc1ccc(C(=O)NNC(=S)NC(=O)C2CCCCC2)cc1`, the EC50 was 14.8 µM (active).

For `O=C1c2ccccc2C(=O)c2c1cccc2-n1nnc2ccccc21`, the EC50 is > 120 µM (not active).

In the case of `O=C1NC(c2ccccc2)=C(c2nc3ccccc3s2)C(c2ccc(F)cc2)N1` (stereo not drawn), the EC50 was > 120 µM (not active).

System in another experiment: not listed separately
The experiment can be described thus: HEp-2 cell cytotoxicity, dose response, cytotoxicity control for RSV inhibitor project, HTS (AID 2410). Format: functional. The following applies: human respiratory syncytial virus.
`O=C1NC(c2ccccc2)=C(c2nc3ccccc3s2)C(c2ccc(F)cc2)N1` (stereo not drawn): the cytotoxic concentration (CC50) was 10.4 µM (active).

Another experiment has as its target Cytochrome P450 2C9 (Homo sapiens, UniProt P11712).
Conditions: not given
For the molecule `COc1cc(C2C(C#N)=C(N)N(Nc3ccccc3)C3=C2C(=O)CC(C)(C)C3)ccc1OCc1ccccc1` (stereo not drawn), the half-maximal activity concentration (AC50) was 0.794 µM (inconclusive).

In a further experiment the test system is Streptococcus. As to the kind of experiment: Group A Streptococcus viability loss, dose response, counter-screen for streptokinase expression inhibitor project, luminescence, BacTiterGlo (AID 1915).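 Further: potency for reduction of bacterial viability or growth.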 Format: functional, organism-based.
Conditions: not given
As to `COc1cnc(-c2ccccn2)nc1Oc1ccccc1Cl`, the EC50 was > 150 µM (not active).

With `CC(C)Cc1csc(NC(=O)c2ccc(Br)cc2)c1C(=O)O`, the EC50 was 6.59 µM (active).

Regarding `COC(=O)c1nc(NC(=S)NC(=O)c2cccs2)sc1C`, the EC50 was > 150 µM (not active).

`O=C(CCCCCNC(=O)c1ccccc1)N=Nc1c(O)[nH]c2c(Br)cc(Br)cc12`: the EC50 is 28.4 µM (active).

Take `CC(C)CC(=O)Nc1ccc(C(=O)NNC(=S)NC(=O)C2CCCCC2)cc1`: the EC50 was 5.23 µM (active).

In the case of `CCCCc1ccc(NC(=O)NCc2ccccn2)cc1`, the EC50 is listed as > 150 µM (not active).

With `COc1ccc(C(=O)OC2CCN(c3ncc(C(F)(F)F)cc3Cl)CC2)cc1`, the EC50 was 39.7 µM (active).

In the case of `C/C(=N\NC(=O)c1ccc(O)cc1)c1cccc(NC(=O)c2ccccc2C)c1`, the half-maximal effective concentration (EC50) is on record as > 150 µM (not active).

The next experiment concerns Streptococcus sp. 'group A'. The experiment can be described thus: growth inhibition of control SK(-) GAS strain, dose response, counter-screen for streptokinase expression inhibitor project, luminescence, kanamycin, BacTiterGlo, confirmation (AID 1900). The format is functional, organism-based.
Conditions: not given
`COc1cnc(-c2ccccn2)nc1Oc1ccccc1Cl`: the EC50 is recorded as > 150 µM (not active).

For `CC(C)Cc1csc(NC(=O)c2ccc(Br)cc2)c1C(=O)O`, the half-maximal effective concentration (EC50) was 3.59 µM (active).

`COC(=O)c1nc(NC(=S)NC(=O)c2cccs2)sc1C`: the concentration for a half-maximal effect (EC50) was 9.59 µM (active).

Take `O=C(CCCCCNC(=O)c1ccccc1)N=Nc1c(O)[nH]c2c(Br)cc(Br)cc12`: the EC50 is 6.76 µM (active).

As for `CC(C)CC(=O)Nc1ccc(C(=O)NNC(=S)NC(=O)C2CCCCC2)cc1`, the EC50 is 1.65 µM (active).

Take `CCCCc1ccc(NC(=O)NCc2ccccn2)cc1`: the EC50 was > 150 µM (not active).

Take `COc1ccc(C(=O)OC2CCN(c3ncc(C(F)(F)F)cc3Cl)CC2)cc1`: the EC50 was 66.5 µM (active).

Take `C/C(=N\NC(=O)c1ccc(O)cc1)c1cccc(NC(=O)c2ccccc2C)c1`: the concentration giving a half-maximal response (EC50) is listed as > 150 µM (not active).

In another experiment the target is T2, Heat shock factor protein 1. The experiment can be described thus: inhibition of MG132-induced HSE-luciferase signal, confirmation, cell-based, NIH3T3, luminescence, dose retest (AID 2382).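 Further: NIH3T3 fibroblasts with HSF1-driven luciferase reporter stressed by proteasome inhibitor MG132; luminescence from HSF1-driven luciferase expression after 8 hours of MG132 stress.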 The format is functional.
Conditions: not given
Consider `Cc1ccnc(NS(=O)(=O)c2ccc(NC(=O)COc3ccccc3)cc2)n1`, for which the EC50 is reported as > 195 µM (not active).

System in the next experiment: not listed separately
The experiment can be described thus: inhibitors of firefly luciferase expression or activity, dose response, H4 neuroglioma cells, luminescence (AID 1990). Format: functional, cell-based.
Conditions: not given
Take `COc1cccc(CNC(=O)c2nnn(CC(=O)Nc3ccc(Br)cc3)c2N)c1`: the EC50 was 46.9 µM (active).

For the molecule `Cn1c(NNC(=O)c2ccccc2F)cc(=O)n(C)c1=O`, the EC50 is > 120 µM (not active).

`Cc1ccnc(NS(=O)(=O)c2ccc(NC(=O)COc3ccccc3)cc2)n1`: the EC50 is > 120 µM (not active).

Turning to `COc1cc(C2C(C#N)=C(N)N(Nc3ccccc3)C3=C2C(=O)CC(C)(C)C3)ccc1OCc1ccccc1` (stereo not drawn), the EC50 is 13.4 µM (active).

Take `CC(C)CC(=O)Nc1ccc(C(=O)NNC(=S)NC(=O)C2CCCCC2)cc1`: the EC50 is 12.5 µM (active).

On to `O=C1c2ccccc2C(=O)c2c1cccc2-n1nnc2ccccc21`, for which the EC50 is 16.3 µM (active).

As to `O=C1NC(c2ccccc2)=C(c2nc3ccccc3s2)C(c2ccc(F)cc2)N1` (stereo not drawn), the EC50 is given as > 60 µM (not active).
